Reference: article PMC10095864, “Targeting HIV-1 Reverse Transcriptase Using a Fragment-Based Approach” (Molecules, 2023)
Read-outs that look alike come from different tables or passages of the source.

Tests used:
recombinant WT HIV-1 RT = molecular target: T1, recombinant WT HIV-1 RT (Human immunodeficiency virus type 1 group M subtype B, UniProt P03367); test: biochemical; conditions: for IC50: RT Inhibition—IC50 ± SEM, WT, WT RT DDDP activity, PicoGreen or 33P radiolabeled assay, value not marked as PicoGreen, n ≥ 2; for Ligand efficiency (LE): binding to WT RT, LE = −1.4(logIC50)/N
T1 construct: The p66/p51 HIV-1 RT heterodimer engineered with a N-terminal histidine tag; His tag (histidine tag) (N); made in house; host or cells: Escherichia coli strain M15 (vector pRT6H-PR)
Method: (§1) The inhibitory activity of all compounds was evaluated in vitro in assays that measure the DNA-dependent DNA polymerase (DDDP) activity of HIV-1 RT. Compounds were tested against recombinant WT and drug-resistant HIV-1 RT mutants (K103N, Y181C or K103N/Y181C). […] The IC50 value of nevirapine was determined in parallel to control for the performance of the assay. […] These RT mutations either reduce the rate of entry of NNRTIs to the binding pocket (K103N) or remove aromatic interactions that favor binding (Y181C). Initially, compound IC50 values were determined in an assay that quantifies DDDP activity mediated by HIV-1 RT using a radiolabeled ^33PdTTP substrate and more recently using a nonradioactive PicoGreen-based spectrophotometric assay.
(§2) Recombinant HIV-1 RT: The p66/p51 HIV-1 RT heterodimer engineered with a N-terminal histidine tag was expressed from the pRT6H-PR vector (provided by Nicolas Sluis-Cremer) which is based on pRT6H-PROT [37], except that the RT coding region is derived from the infectious molecular clone xxLAI [38]. This xxLAI clone contains the HIV-1LAI backbone and is engineered with silent mutations introducing Xma I and Xba I sites in the RT coding region at nucleotide positions 40–45 and 1470 to 1475, respectively. pRT6H-PR expressing the NNRTI drug-resistant mutations K103N, Y181C and K103N/Y181C were generated by subcloning Xma I/Xba I fragments in xxLAI harboring the desired NNRTI mutations (Giacobbi NS and Sluis-Cremer 2017 AAC) into the corresponding restriction sites in the RT coding region of p6HRT-PR. RT was expressed in Escherichia coli strain M15 and purified using Ni-NTA chromatography as previously described. RT concentrations were determined spectrophotometrically at 280 nm using an extinction coefficient (e280) of 260, 450 M^−1 cm^−1.
(§3) Nevirapine was included in assays as a positive control for inhibiting RT polymerase activity. The DDDP assay was performed by first adding 25 ng of HIV-1 RT to test compound in 96-well plates followed by initiating RT polymerase activity by adding 200 ng of activated calf thymus (ACT) DNA (Sigma Aldrich), 0.2 µCi ^33P-α-dTTP (Perkin Elmer), 50 mM Tris-HCl pH 7.8 50 mM KCl, […], 50 µM dNTP mix (Bioline), 0.1 mg/mL bovine serum albumin (New England Biolabs), 0.01% IGEPAL (Sigma) and 1 mM dithiothreitol. Reactions contained 2.5% dimethyl sulfoxide (DMSO). Following incubation at 37 °C for 10 min, samples from duplicate wells were applied to Whatman DE81 ion-exchange paper (GE Healthcare); dried membranes were washed in 2X saline-sodium citrate (SSC) buffer; and incorporated counts were quantified using an FLP-2000 phosphorimager (Fujifilm) or Typhoon Trio Phosphorimager (GE Healthcare) as published. Dose–response curves were generated using PRISM GraphPad version 8 by plotting the log transformed drug concentrations against percentage inhibition of DDDP activity compared to the no drug control using non-linear regression analysis.
(§4) Non-radioactive DDDP Assay: DDDP assays were also performed using a PicoGreen based spectrophotometric assay to detect double-stranded DNA synthesized by recombinant HIV-1 RT [15]. Assays were performed as described for the […] DDDP assay except that instead of ACT, the reaction contained 40 nM of a template/primer comprising a 200 nt DNA template (5′-[…] […]-3′) annealed to a 18 nucleotide DNA primer (5′-[…]-3′), 50 mM Tris-HCl pH 7.8, 50 mM KCl, 10 mM MgCl2 and 50 µM dNTP mix.

HIV-1 RT Y181C mutant = molecular target: T2, HIV-1 RT Y181C mutant (Human immunodeficiency virus type 1 group M subtype B, UniProt P03367, Y780C); test: DDDP activity assay, Y181C RT mutant; format: biochemical; conditions: PicoGreen or 33P radiolabeled assay, n ≥ 2, read-out: RT Inhibition—IC50 ± SEM, Y181C
T2 construct: The p66/p51 HIV-1 RT heterodimer engineered with a N-terminal histidine tag; His tag (histidine tag) (N); made in house; host or cells: Escherichia coli strain M15 (vector pRT6H-PR)
Method: as §1
Recombinant HIV-1 RT: The p66/p51 HIV-1 RT heterodimer engineered with a N-terminal histidine tag was expressed from the pRT6H-PR vector (provided by Nicolas Sluis-Cremer) which is based on pRT6H-PROT [37], except that the RT coding region is derived from the infectious molecular clone xxLAI [38]. […] RT concentrations were determined spectrophotometrically at 280 nm using an extinction coefficient (e280) of 260, 450 M^−1 cm^−1.
Nevirapine was included in assays as a positive control for inhibiting RT polymerase activity. […] Following incubation at 37 °C for 10 min, samples from duplicate wells were applied to Whatman DE81 ion-exchange paper (GE Healthcare); dried membranes were washed in 2X saline-sodium citrate (SSC) buffer; and incorporated counts were quantified using an FLP-2000 phosphorimager (Fujifilm) or Typhoon Trio Phosphorimager (GE Healthcare) as published. […]

His-tagged HIV-1 RT WT = molecular target: T3, His-tagged HIV-1 RT WT (Human immunodeficiency virus type 1 group M subtype B, UniProt P03367); test: Surface plasmon resonance, WT RT; format: binding
T3 construct: The p66/p51 HIV-1 RT heterodimer engineered with a N-terminal histidine tag; His tag (histidine tag) (N); made in house; host or cells: Escherichia coli strain M15 (vector pRT6H-PR)
Method: (§5) Compound binding to recombinant HIV-1 RT was measured by surface plasmon resonance (SPR). SPR is an optical biosensor detection method that involves passing an analyte (often a fragment) in a buffer solution over a gold surface chip with an immobilized protein (RT enzyme) and detecting the change in plasmon resonance angle which is dependent on the refractive index of the medium near the surface. As compounds bind to the target protein, the refractive index changes proportionally to the extent of binding. This can then be used to measure the association and dissociation kinetics of binding as well as the compound’s affinity for binding.
(§6) SPR assays were performed on a Biacore S200 (GE Healthcare). His-tagged RT (WT, K103N, Y181C or K103N/Y181C) was immobilized on the surface of a Biacore compatible NIHC 1500M (Xantec) chip according to manufacturer’s instructions. Following 3 injections 300 s each of 0.5 M EDTA, the chip surface was activated with a 120 s injection of 5 mM NiCl2 followed by a 2100 s injection of 130 nM RT. The final immobilization level of RT was typically 14,000–27,000 RU. SPR experiments were carried out at 25 °C using a flow rate of 50 µL/min in running buffer. The running buffer was 1.053 × (HBS pH 7.4 + 50 µM EDTA + 0.005% Tween-20). Compounds were provided as 200 mM stocks and diluted in running buffer to obtain the concentrations required for dose-response studies (0, 6.25, 12.5, 25, 50, 100 and 200 µM). Raw sensorgram data were analyzed using Biacore S200 Evaluation Software. Dose-response determinations were evaluated using a 1:1 binding model. KD values were determined by Biacore S200 Evaluation Software Version 1.0. assuming 1:1 binding. For compounds approaching saturation, Rmax was floated. For compounds with insufficient curvature, Rmax was fixed based on a control. Errors were determined as the standard error in the dose-response fit, as calculated by Biacore S200 Evaluation Software.

[1] = molecular target: T4, HIV-1 RT K103N/Y181C mutant (Human immunodeficiency virus type 1 group M subtype B, UniProt P03367, K702N/Y780C); test: DDDP activity assay, K103N/Y181C RT mutant; format: biochemical
T4 construct: The p66/p51 HIV-1 RT heterodimer engineered with a N-terminal histidine tag; His tag (histidine tag) (N); made in house; host or cells: Escherichia coli strain M15 (vector pRT6H-PR)
Method: as §1, §2, §3, §4

[2] = tested on: HIV-1 RT K103N/Y181C mutant; test: DDDP activity assay, K103N/Y181C RT mutant; format: biochemical; conditions: nonsignificant
Method: as §1, §2, §3, §4

[3] = molecular target: T5, His-tagged HIV-1 RT K103N (Human immunodeficiency virus type 1 group M subtype B, UniProt P03367, K702N); test: Surface plasmon resonance, K103N RT; conditions: ± standard error of dose–response fit, n = 1; NB = no binding observed; read-out: SPR—KD, K103N
T5 construct: The p66/p51 HIV-1 RT heterodimer engineered with a N-terminal histidine tag; His tag (histidine tag) (N); made in house; host or cells: Escherichia coli strain M15 (vector pRT6H-PR)
Method: as §5, §6

[4] = molecular target: T6, His-tagged HIV-1 RT K103N/Y181C (Human immunodeficiency virus type 1 group M subtype B, UniProt P03367, K702N/Y780C); test: Surface plasmon resonance, K103N/Y181C RT; format: binding
T6 construct: The p66/p51 HIV-1 RT heterodimer engineered with a N-terminal histidine tag; His tag (histidine tag) (N); made in house; host or cells: Escherichia coli strain M15 (vector pRT6H-PR)
Method: as §5
(§7) SPR assays were performed on a Biacore S200 (GE Healthcare). His-tagged RT (WT, K103N, Y181C or K103N/Y181C) was immobilized on the surface of a Biacore compatible NIHC 1500M (Xantec) chip according to manufacturer’s instructions. Following 3 injections 300 s each of 0.5 M EDTA, the chip surface was activated with a 120 s injection of 5 mM NiCl2 followed by a 2100 s injection of 130 nM RT. […] Raw sensorgram data were analyzed using Biacore S200 Evaluation Software. Dose-response determinations were evaluated using a 1:1 binding model. KD values were determined by Biacore S200 Evaluation Software Version 1.0. assuming 1:1 binding. […] Errors were determined as the standard error in the dose-response fit, as calculated by Biacore S200 Evaluation Software.

[5] = tested on: His-tagged HIV-1 RT K103N/Y181C; test: Surface plasmon resonance, K103N/Y181C RT; format: binding; conditions: SPR
Method: as §5, §7

HIV-1 RT K103N mutant = molecular target: T7, HIV-1 RT K103N mutant (Human immunodeficiency virus type 1 group M subtype B, UniProt P03367, K702N); test: DDDP activity assay, K103N RT mutant; format: biochemical; conditions: PicoGreen or 33P radiolabeled assay, n ≥ 2, read-out: RT Inhibition—IC50 ± SEM, K103N
T7 construct: The p66/p51 HIV-1 RT heterodimer engineered with a N-terminal histidine tag; His tag (histidine tag) (N); made in house; host or cells: Escherichia coli strain M15 (vector pRT6H-PR)
Method: as §1
Recombinant HIV-1 RT: The p66/p51 HIV-1 RT heterodimer engineered with a N-terminal histidine tag was expressed from the pRT6H-PR vector (provided by Nicolas Sluis-Cremer) which is based on pRT6H-PROT [37], except that the RT coding region is derived from the infectious molecular clone xxLAI [38]. […] RT concentrations were determined spectrophotometrically at 280 nm using an extinction coefficient (e280) of 260, 450 M^−1 cm^−1. […]

[6] = molecular target: T8, His-tagged HIV-1 RT Y181C (Human immunodeficiency virus type 1 group M subtype B, UniProt P03367, Y780C); test: Surface plasmon resonance, Y181C RT; conditions: ± standard error of dose–response fit, n = 1; NB = no binding observed; read-out: SPR—KD, Y181C
T8 construct: The p66/p51 HIV-1 RT heterodimer engineered with a N-terminal histidine tag; His tag (histidine tag) (N); made in house; host or cells: Escherichia coli strain M15 (vector pRT6H-PR)
Method: as §5, §7

[7] = tested on: HIV-1 RT (WT RT construct RT35A); conditions: assay detects inhibition of both DNA polymerase and RNase H activity; read-out: IC50 (Bauman et al.); cited from earlier work
[8] = tested on: NNRTI-binding pocket (NNIBP) of HIV-1 RT; design: method as in PMID 24002095; conditions: cited from earlier work
[9] = read-out: SPR—KD, WT, ± standard error of dose–response fit, n = 1, NB = no binding observed

| Structure (SMILES) | IC50 (recombinant WT HIV-1 RT) | Ligand efficiency (LE) (recombinant WT HIV-1 RT) | IC50 (HIV-1 RT Y181C mutant) | Kd (His-tagged HIV-1 RT WT) | Kd [3] | also measured |
| --- | --- | --- | --- | --- | --- | --- |
| CCOC(=O)c1cnn2cccc(C)c12 [compound 2, Ethyl 4-Methylpyrazolo[1,5-a]pyridine-3-carboxylate] | 433 ± 166 µM | 0.31 kcal/mol/HA | > 333 µM | 347 ± 23 µM | – | – |
| CCOC(=O)c1cnn2cccc(C#CC3CC3)c12 [compound 27, Ethyl 4-(Cyclopropylethynyl)pyrazolo[1,5-a]pyridine-3-carboxylate] | 11 ± 1 µM | 0.37 kcal/mol/HA | – | 79 ± 7 µM | 187 ± 15 µM | fold improvement on parent compound B-1 (recombinant WT HIV-1 RT; IC50 vs B-1 IC50 >1000 μM in the radioactive RT assay): > 20 fold; IC50 [1]: 34 ± 8 µM; fold decrease in susceptibility, K103N/Y181C mutant compared to WT RT [2]: 3.0 fold; Kd [4]: 187 ± 15 µM; fold decrease in binding, K103N/Y181C double mutant vs WT [5]: 2–3 fold |
| CCOC(=O)c1cnn2c(C)cccc12 [compound 5, Ethyl 7-Methylpyrazolo[1,5-a]pyridine-3-carboxylate] | 470 ± 95 µM | 0.31 kcal/mol/HA | > 333 µM | – | – | Kd (His-tagged HIV-1 RT WT; [9]): > 200 µM |
| CCOC(=O)c1cnn2cccc(Br)c12 [compound 6, Ethyl 4-Bromopyrazolo[1,5-a]pyridine-3-carboxylate] | 159 ± 29 µM | 0.35 kcal/mol/HA | 850 ± 187 µM | 598 ± 15 µM | 1400 ± 45 µM | IC50 (HIV-1 RT K103N mutant): 846 ± 42 µM; Kd [6]: 1190 ± 47 µM |
| CCOC(=O)c1cnn2ccccc12 [compound B-1, ethyl pyrazolo[1,5-a]pyridine-3-carboxylate, reference compound] | – | – | – | – | – | IC50 [1]: 208 µM; Kd (His-tagged HIV-1 RT WT; [9]): > 200 µM; IC50 [7]: 350 µM |
| Cc1cc(/C=C/C#N)cc(C)c1Nc1ccnc(Nc2ccc(C#N)cc2)n1 [Rilpivirine, rilpivirine] | – | – | – | – | – | affinity for the NNIBP [8]: 0.73 nM |
| CCOC(=O)c1cnn2ccc(N)cc12 [compound 8, Ethyl 5-Aminopyrazolo[1,5-a]pyridine-3-carboxylate] | > 1000 µM | – | – | 522 ± 27 µM | 621 ± 36 µM | Kd [6]: 610 ± 32 µM |
